In this assay the test system is IL-1beta production in mouse microglial cell line. Description: Interleukin-1β microglial cell assay. The assay is classed as cell-based. As to conditions: LPS 10 μg/ml and IFN gamma 10 ng/ml, 24 hours, read-out: EC50, inhibition of IL-1beta production. As to the method: This assay measures the release of IL-1β from a mouse microglial cell line following an inflammatory challenge with LPS and interferon-gamma. The ability of test articles to inhibit microglial cell activation and IL-1β release is determined by co-incubation of the test article with the inflammatory challenge.
Mouse microglial cells were seeded in poly-D-lysine coated 96-well plates at a density of 10,000 cells/well and allowed to attach for 24 hours. Cells were stimulated by addition of LPS (10 μg/ml) and IFN gamma (10 ng/ml) in the presence or absence of test article. The cells were then incubated for 24 hours at 37° C., after which time the media was removed and used for cytokine determination as described below.
Viability of mouse microglial cells after exposure to the test article was determined using a fluorescent viability dye, Cell Tracker Green. Cell Tracker Green was used at a working concentration of 5 μM in 1×HBSS. Cells were washed once with HBSS (200 μl/well) and 100 μl Cell Tracker Green was added to each well. Cells were then incubated at 37° C. for 30 minutes, after which time the Cell Tracker was removed and the cells were washed once with HBSS (200 μl/well). 100 μl fresh HBSS was added to each well and the plate was read on a Fluoroskan plate reader using an excitation wavelength of 485 nm and an emission wavelength of 538 nm.
Solutions: • Wash Buffer: PBS 1 L+500 μl Tween 20 (final 0.05%) pH 7.2-7.4. • Blocking Buffer: 500 ml PBS+5 g BSA V (1%)+25 g Sucrose (5%)+0.25 g Sodium Azide (0.05%). • Reagent Diluent: 500 ml PBS+5 g BSA V (1%) pH 7.2-7.4 and filter sterilize through 0.2 μm. • Stop Solution: 2N sulfuric acid.
Duo Set Preparations: • 1. The IL-1β capture antibody was reconstituted in 1 ml of PBS to give a final concentration of 720 μg/ml, and the working concentration was 4 μg/ml. For coating one 96-well plate (at 100 μl/well) 56 μl of the 720 μg/ml stock was diluted into 10 ml of PBS. • 2. The IL-1β standards were reconstituted in 0.5 ml of Reagent Diluent (70 ng/ml). For a high standard of 1 ng/ml (2 wells at 100 μl each+enough for series dilution) 7.1 μl of the 70 ng/ml standard were diluted into 0.5 ml of Reagent Diluent • 3. The IL-1β detection antibody was reconstituted in 1 ml of Reagent Diluent to give a final concentration of 18 μg/ml and the working concentration is 100 ng/ml. For one 96-well plate (at 100 μl/well) 56 μl of the 18 μg/ml stock was diluted into 10 ml of Reagent Diluent.
• The Costar EIA Hi-binding plate was coated with capture antibody at 4 μg/ml. Each well was coated with 100 μl, and the plate was sealed and incubated overnight at room temperature. • Each well was aspirated and washed 3× with Wash Buffer. Each well was filled to the top, dispensed, and any remaining buffer was removed by inverting the plate and gently blotting against clean paper towels. • Non-specific binding sites were blocked by adding 300 μl of Blocking Buffer to each well, and after sealing incubating for at least 1 hour at room temperature. • After washing the plate was now ready for the samples. Assay Procedure: • 100 μl of either standard or sample were added in each well of the capture-coated and pre-blocked plate. The plate was sealed and incubated for 2 hours at room temperature, followed with washing. • 100 μl of the detection antibody (10 ng/ml) were added to each well. […]

Structures are written as SMILES.

By EC50 is commonly meant the concentration needed to bring the measured effect to its halfway point. With `CC(C)=CCc1c(O)c2c(c3c1CCC(C)(C)O3)C1CCC2C1` (centres unmarked) [2,2-Dimethyl-5-(3-methyl-but-2-enyl)-3,4,7,8,9,10-hexahydro-7,10-methano-2H-benzo[h]chromen-6-ol], the EC50 was not above 20 µM.

With `CC(C)CCc1c(O)c2c(c3c1CCC(C)(C)O3)C1CCC2C1` (centres unmarked) [2,2-Dimethyl-5-(3-methyl-butyl)-3,4,7,8,9,10-hexahydro-7,10-methano-2H-benzo[h]chromen-6-ol], the EC50 is not above 20 µM.
